Source: patent US8445691B2, “Heterocyclic thiosubstituted alkanol derivatives” (Bayer CropScience AG, priority 2010, dated 2013)
“And” between values parts separate entries of the source, which are not always exact repeats. Equal entries are not always repeated.

How the values were obtained:
Alternaria solani = experiment: Alternaria test (tomato) / protective; type: in vivo; settings: 500 ppm active ingredient, protective spray on young tomato plants, evaluation 7 days after inoculation; 0% = control, 100% = no infection
Protocol: Alternaria Test (Tomato)/Protective
(§1) • Solvent: 49 parts by weight of N,N-dimethylformamide • Emulsifier: 1 part by weight of alkylaryl polyglycol ether
To produce an appropriate active ingredient formulation, 1 part by weight of active ingredient is mixed with the specified amounts of solvent and emulsifier, and the concentrate is diluted with water to the desired concentration. To test for protective activity, young tomato plants are sprayed with the active ingredient formulation at the stated application rate. One day after the treatment, the plants are inoculated with a spore suspension of Alternaria solani and are then left to stand at 100% relative humidity and 22° C. for 24 h. Subsequently, the plants are left to stand at 96% relative air humidity and a temperature of 20° C. Evaluation follows 7 days after the […]. 0% means an efficacy which corresponds to that of the control, whereas an efficacy of 100% means that no infection is observed.

Sphaerotheca fuliginea = experiment: Sphaerotheca test (cucumber) / protective; type: in vivo; settings: 500 ppm active ingredient, protective spray on young cucumber plants, evaluation 7 days after inoculation; 0% = control, 100% = no infection
Protocol: Sphaerotheca Test (Cucumber)/Protective
as §1
To produce an appropriate active ingredient formulation, 1 part by weight of active ingredient is mixed with the specified amounts of solvent and emulsifier, and the concentrate is diluted with water to the desired concentration. To test for protective activity, young cucumber plants are sprayed with the formulation of active ingredient at the stated application rate. 1 day after the treatment, the plants are inoculated with a spore suspension of Sphaerotheca fuliginea. The plants are then placed in a greenhouse at 70% relative air humidity and a temperature of 23° C. Evaluation follows 7 days after the inoculation. 0% means an efficacy which corresponds to that of the control, whereas an efficacy of 100% means that no infection is observed.

[1] = logP by reversed-phase HPLC (EEC Directive 79/831 Annex V.A8); type: physicochemical; settings: method [a]: LC-MS, acidic range pH 2.7, 0.1% aqueous formic acid / acetonitrile, linear gradient 10% to 95% acetonitrile, C18 reversed phase
Protocol: The logP values were measured in accordance with EEC Directive 79/831 Annex V.A8 by HPLC (High Performance Liquid Chromatography) using reversed-phase columns (C 18) by the following methods:
[a] The LC-MS determination in the acidic range is effected at pH 2.7 with 0.1% aqueous formic acid and acetonitrile (contains 0.1% formic acid) as eluents; linear gradient from 10% acetonitrile to 95% acetonitrile.

Row | Structure (SMILES) | efficacy (Alternaria solani) [%] | efficacy (Sphaerotheca fuliginea) | logP [1]
1 | CC(C)(C)C(O)(CSc1ccc(I)cc1)c1cncs1 (stereo not drawn) [Compound 2] | 86 | 95% | 
2 | CC(C)(C)C(O)(CSc1ccc(Cl)s1)c1cncs1 (stereo not drawn) [Compound 4] |  |  | logP 3.68^[a]; [M]^+ = 334.
3 | CC(C)C(O)(CSc1ccc(I)cc1)c1cncs1 (stereo not drawn) [Compound 6] |  | 80% | 
4 | CC(C)(C)C(O)(CSCc1ccc(Cl)cc1Cl)c1cncs1 (stereo not drawn) [Compound 10] |  |  | logP 4.29^[a]; [M]^+ = 375.
5 | CC(C)(C)C(O)(CSc1ccc(Cl)cc1Cl)c1cncs1 (stereo not drawn) [Compound 11] | 99 | 80% | logP 3.96^[a]; [M]^+ = 361.
6 | Cc1ccc(SCC(O)(c2cncs2)C(C)(C)C)cc1 (stereo not drawn) [Compound 12] |  |  | logP 3.63^[a]; [M]^+ = 307.
7 | CC1(C(O)(CSc2ccc(I)cc2)c2cncs2)CCCCC1 (stereo not drawn) [Compound 13] | 99 | 89% | 
8 | CC(C)Oc1ccc(SCC(O)(c2cncs2)C2(C)CCCCC2)cn1 (stereo not drawn) [Compound 16] | 94 |  | logP 4.70^[a]; [M]^+ = 393.
9 | CC(C)(C)C(O)(CSc1ccc(Cl)cc1)c1cncs1 (stereo not drawn) [Compound 17] |  |  | log p 3.64^[a]
10 | COc1ccc(SCC(O)(c2cncs2)C(C)(C)C)cc1 (stereo not drawn) [Compound 18] |  |  | log p 3.16^[a]
11 | CC(C)(C)c1ccc(SCC(O)(c2cncs2)C(C)(C)C)cc1 (stereo not drawn) [Compound 19] |  |  | log p 3.7^[a]
12 | CC(C)(C)C(O)(CSc1cccc(Br)c1)c1cncs1 (stereo not drawn) [Compound 20] |  |  | log p 3.74^[a]
13 | CC(C)(C)C(O)(CSc1ccccc1Br)c1cncs1 (stereo not drawn) [Compound 21] |  |  | log p 3.5^[a]
14 | Cc1ccc([S+]([O-])CC(O)(c2cncs2)C(C)(C)C)c(C)c1 (stereo not drawn) [Compound 23] |  |  | log p 2.92^[a]
15 | CC(C)C(O)(CSc1nncn1-c1c(F)cccc1F)c1cncs1 (stereo not drawn) [Compound 24] |  |  | log p 1.8^[a]
16 | CC(C)C(O)(CSc1nncn1-c1ccccc1)c1cncs1 (stereo not drawn) [Compound 25] |  |  | log p 1.76^[a]
17 | CC(C)(C)C(O)(CSC1CCCCC1)c1cncs1 (stereo not drawn) [Compound 26] |  |  | log p 4.17^[a]
18 | CC(C)(C)C(O)(CSc1ccccc1Br)c1cnc(Sc2ccccc2Br)s1 (stereo not drawn) [Compound 27] |  |  | log p 5.78^[a]
19 | Cc1ccc(SCC(O)(c2cncs2)C(C)(C)C)c(C)c1 (stereo not drawn) [Compound 28] |  |  | log p 4.02^[a]
20 | CC(C)C(O)(CSc1nncn1C1CCCCC1)c1cncs1 (stereo not drawn) [Compound 31] |  |  | log p 2.04^[a]

Row | Structure (SMILES) | efficacy (Alternaria solani) [%] | efficacy (Sphaerotheca fuliginea) | logP [1]
21 | CC(C)(C)C(O)(CSc1ccc(Cl)cc1)Cc1cncs1 (stereo not drawn) [Compound 34] | 99 |  | 
22 | CC(C)(C)C(O)(CSc1ccc2ccccc2c1)c1cncs1 (stereo not drawn) [Compound 35] |  |  | log p 3.92^[a]
23 | CC(C)(C)C(O)(CSc1cccc2ccccc12)c1cncs1 (stereo not drawn) [Compound 36] |  |  | log p 3.87^[a]
24 | Cc1ccc(SCC(O)(c2cncs2)C(C)(C)C)cc1 (stereo not drawn) [Compound 37] |  |  | log p 3.63^[a]
25 | CC(C)(C)C(O)(CSc1ccc(Cl)c(Cl)c1)c1cncs1 (stereo not drawn) [Compound 38] | 75 | 80% and 90% | log p 4.05^[a]
26 | CC(C)(C)C(O)(CSc1cccc(Oc2ccccc2)c1)c1cncs1 (stereo not drawn) [Compound 39] |  |  | log p 4.33^[a]
27 | CC(C)(C)C(O)(CSc1ccc(C(=O)NC2CC2)cc1Cl)c1cncs1 (stereo not drawn) [Compound 40] |  |  | log p 2.54^[a]
28 | COC(=O)c1ccc(SCC(O)(c2cncs2)C(C)(C)C)cc1 (stereo not drawn) [Compound 41] |  |  | log p 3.01^[a]
29 | CC(=O)c1ccccc1SCC(O)(c1cncs1)C(C)(C)C (stereo not drawn) [Compound 42] |  |  | log p 2.66^[a]
30 | CC(C)(C)C(O)(CSc1cc(C(F)(F)F)ccc1Cl)c1cncs1 (stereo not drawn) [Compound 43] |  |  | log p 4.02^[a]
31 | CC(C)(C)C(O)(CSc1ccc(-c2ccccc2)cc1)c1cncs1 (stereo not drawn) [Compound 44] | 100 |  | log p 4.39 ^[a]
32 | CCOC(=O)c1ccc(SCC(O)(c2cncs2)C(C)(C)C)c(C)c1 (stereo not drawn) [Compound 45] |  |  | log p 3.7 ^[a]
33 | CC(Oc1ccc(SCC(O)(c2cncs2)C(C)(C)C)cc1)C(C)(C)C (stereo not drawn) [Compound 46] |  |  | log p 5.53^[a]
34 | CC(C)(C)C(O)(CSc1ccc(F)cc1F)c1cncs1 (stereo not drawn) [Compound 47] |  |  | log p 3.26^[a]
35 | CC(C)(C)C(=O)Nc1ccc(SCC(O)(c2cncs2)C(C)(C)C)cc1 (stereo not drawn) [Compound 48] |  |  | log p 3.14^[a]
36 | CC(=O)c1ccc(SCC(O)(c2cncs2)C(C)(C)C)c(Cl)c1 (stereo not drawn) [Compound 49] |  |  | log p 2.91^[a]
37 | CC(C)(C)C(O)(CSc1ccc(F)c(F)c1)c1cncs1 (stereo not drawn) [Compound 50] |  |  | log p 3.3^[a]
38 | CSc1ccc(SCC(O)(c2cncs2)C(C)(C)C)cc1 (stereo not drawn) [Compound 51] |  |  | log p 3.59^[a]
39 | CCOC(=O)c1ccc(SCC(O)(c2cncs2)C(C)(C)C)cc1 (stereo not drawn) [Compound 52] |  |  | log p 3.41^[a]
40 | CC(C)(C)C(O)(CSc1ccc(C(=O)c2ccccc2)cc1)c1cncs1 (stereo not drawn) [Compound 53] |  |  | log p 3.66^[a]

Row | Structure (SMILES) | efficacy (Alternaria solani) [%] | efficacy (Sphaerotheca fuliginea) | logP [1]
41 | CC(=O)Nc1cccc(SCC(O)(c2cncs2)C(C)(C)C)c1 (stereo not drawn) [Compound 54] |  |  | log p 2.15^[a]
42 | CCc1cccc(C)c1SCC(O)(c1cncs1)C(C)(C)C (stereo not drawn) [Compound 55] |  |  | log p 4.41^[a]
43 | CCc1cccc(CC)c1SCC(O)(c1cncs1)C(C)(C)C (stereo not drawn) [Compound 56] |  |  | log p 4.78^[a]
44 | CC(C)(C)C(O)(CSc1cc(C(F)(F)F)cc(C(F)(F)F)c1)c1cncs1 (stereo not drawn) [Compound 58] |  |  | log p 4.37^[a]
45 | CC(C)(C)C(O)(CSc1cc(Cl)cc(Cl)c1)c1cncs1 (stereo not drawn) [Compound 59] |  |  | log p 4.18^[a]
46 | CC(C)(C)C(O)(CSc1cccc(Cl)c1Cl)c1cncs1 (stereo not drawn) [Compound 60] | 94 |  | log p 3.76^[a]
47 | CC(C)(C)C(O)(CSc1cccc(C(F)(F)F)c1)c1cncs1 (stereo not drawn) [Compound 61] |  |  | log p 3.74^[a]
48 | CC(C)(C)C(O)(CSc1cc(Cl)c(Cl)cc1Cl)c1cncs1 (stereo not drawn) [Compound 62] |  |  | log p 4.41^[a]
49 | Cc1cccc(SCC(O)(c2cncs2)C(C)(C)C)c1 (stereo not drawn) [Compound 63] |  |  | log p 3.57^[a]
50 | Cc1ccccc1SCC(O)(c1cncs1)C(C)(C)C (stereo not drawn) [Compound 64] |  |  | log p 3.52^[a]
51 | CC(C)(C)C(O)(CSc1ccc(F)cc1)c1cncs1 (stereo not drawn) [Compound 65] |  |  | log p 3.21^[a]
52 | CC(=O)Nc1ccc(SCC(O)(c2cncs2)C(C)(C)C)cc1 (stereo not drawn) [Compound 66] |  |  | log p 2.13^[a]
53 | COC(=O)c1ccccc1SCC(O)(c1cncs1)C(C)(C)C (stereo not drawn) [Compound 67] |  |  | log p 2.95^[a]
54 | Cc1cc(C)cc(SCC(O)(c2cncs2)C(C)(C)C)c1 (stereo not drawn) [Compound 68] |  |  | log p 4.06^[a]
55 | CCc1ccccc1SCC(O)(c1cncs1)C(C)(C)C (stereo not drawn) [Compound 69] |  |  | log p 3.9^[a]
56 | Cc1ccc(C)c(SCC(O)(c2cncs2)C(C)(C)C)c1 (stereo not drawn) [Compound 70] |  |  | log p 3.98^[a]
57 | CC(C)(C)C(O)(CSc1ccccc1Cl)c1cncs1 (stereo not drawn) [Compound 71] |  |  | log p 3.37^[a]
58 | CC(C)(C)C(O)(CSc1cccc(Cl)c1)c1cncs1 (stereo not drawn) [Compound 72] |  |  | log p 3.59^[a]
59 | CC(C)(C)C(O)(CSc1ccccc1)c1cncs1 (stereo not drawn) [Compound 73] |  |  | log p 3.8^[a]
60 | CC(C)(C)C(O)(CSc1cc(Cl)ccc1Cl)c1cncs1 (stereo not drawn) [Compound 74] |  |  | log p 3.83^[a]
